Where “and” joins values, the source holds several entries; their conditions need not be identical. Equal values may be shown once.
Conditions: Gas, Frequency=0.05 MHz, Single path-length method

FC(F)(F)C(F)(F)C(F)(F)F [octafluoropropane]
Conditions | speed of sound
251.1 K, 62.4 kPa | 106.76 m/s
251.1 K, 71.8 kPa | 106.39 m/s
251.1 K, 80.5 kPa | 106.08 m/s
251.1 K, 89.7 kPa | 105.72 m/s
251.1 K, 102 kPa | 105.24 m/s
251.1 K, 118.2 kPa | 104.61 m/s
251.1 K, 143.1 kPa | 103.57 m/s
251.1 K, 167.2 kPa | 102.56 m/s
256.3 K, 63.7 kPa | 107.91 m/s
256.3 K, 73.3 kPa | 107.57 m/s
256.3 K, 82.2 kPa | 107.26 m/s
256.3 K, 91.7 kPa | 106.91 m/s
256.3 K, 104.3 kPa | 106.47 m/s
256.3 K, 120.9 kPa | 105.85 m/s
256.3 K, 146.4 kPa | 104.86 m/s
256.3 K, 171.2 kPa | 103.89 m/s
256.3 K, 198.4 kPa | 102.79 m/s
256.3 K, 221.3 kPa | 101.83 m/s
261.6 K, 65.1 kPa | 109.07 m/s
261.6 K, 74.9 kPa | 108.75 m/s
261.6 K, 84 kPa | 108.44 m/s
261.6 K, 93.7 kPa | 108.11 m/s
261.6 K, 106.6 kPa | 107.67 m/s
261.6 K, 123.6 kPa | 107.08 m/s
261.6 K, 149.8 kPa | 106.13 m/s
261.6 K, 175.2 kPa | 105.21 m/s
261.6 K, 203.2 kPa | 104.16 m/s
261.6 K, 226.7 kPa | 103.22 m/s
261.6 K, 233.4 kPa | 102.97 m/s
261.6 K, 253.9 kPa | 102.14 m/s
266.8 K, 66.4 kPa | 110.2 m/s
266.8 K, 76.4 kPa | 109.87 m/s
266.8 K, 85.7 kPa | 109.58 m/s
266.8 K, 95.7 kPa | 109.25 m/s
266.8 K, 108.8 kPa | 108.83 m/s
266.8 K, 126.3 kPa | 108.28 m/s
266.8 K, 153 kPa | 107.37 m/s
266.8 K, 179.2 kPa | 106.48 m/s
266.8 K, 207.8 kPa | 105.46 m/s
266.8 K, 232.2 kPa | 104.58 m/s
266.8 K, 238.9 kPa | 104.32 m/s
266.8 K, 260 kPa | 103.52 m/s
272.1 K, 67.8 kPa | 111.33 m/s
272.1 K, 78 kPa | 111.03 m/s
272.1 K, 87.5 kPa | 110.74 m/s
272.1 K, 97.7 kPa | 110.44 m/s
272.1 K, 111.1 kPa | 110.02 m/s
272.1 K, 128.9 kPa | 109.46 m/s and 109.47 m/s
272.1 K, 156.4 kPa | 108.62 m/s and 108.61 m/s
272.1 K, 183.1 kPa | 107.74 m/s
272.1 K, 212.6 kPa | 106.77 m/s
272.1 K, 237.5 kPa | 105.93 m/s
272.1 K, 244.5 kPa | 105.69 m/s
272.1 K, 266.3 kPa | 104.92 m/s
277.4 K, 69.1 kPa | 112.44 m/s
277.4 K, 79.6 kPa | 112.15 m/s
277.4 K, 89.3 kPa | 111.87 m/s
277.4 K, 99.7 kPa | 111.58 m/s
277.4 K, 113.4 kPa | 111.18 m/s
277.4 K, 131.6 kPa | 110.66 m/s
277.4 K, 159.7 kPa | 109.81 m/s
277.4 K, 187.1 kPa | 108.99 m/s
277.4 K, 217.3 kPa | 108.05 m/s
277.4 K, 242.9 kPa | 107.24 m/s
277.4 K, 250.1 kPa | 107.02 m/s
277.4 K, 272.5 kPa | 106.29 m/s
282.7 K, 70.4 kPa | 113.54 m/s
282.7 K, 81.2 kPa | 113.28 m/s
282.7 K, 91 kPa | 113 m/s
282.7 K, 101.6 kPa | 112.71 m/s
282.7 K, 115.6 kPa | 112.32 m/s
282.7 K, 134.3 kPa | 111.82 m/s
282.7 K, 163 kPa | 111.01 m/s
282.7 K, 191.1 kPa | 110.22 m/s
282.7 K, 222 kPa | 109.31 m/s
282.7 K, 248.3 kPa | 108.54 m/s
282.7 K, 255.6 kPa | 108.32 m/s
282.7 K, 278.6 kPa | 107.62 m/s
287.9 K, 71.8 kPa | 114.63 m/s
287.9 K, 82.7 kPa | 114.36 m/s
287.9 K, 92.8 kPa | 114.11 m/s
287.9 K, 103.6 kPa | 113.84 m/s
287.9 K, 117.9 kPa | 113.46 m/s
287.9 K, 136.9 kPa | 112.97 m/s
287.9 K, 166.3 kPa | 112.19 m/s
287.9 K, 195 kPa | 111.42 m/s
287.9 K, 226.7 kPa | 110.56 m/s
287.9 K, 253.6 kPa | 109.81 m/s
287.9 K, 261.1 kPa | 109.59 m/s
287.9 K, 284.7 kPa | 108.91 m/s
293.2 K, 73.1 kPa | 115.72 m/s
293.2 K, 84.2 kPa | 115.45 m/s
293.2 K, 84.3 kPa | 115.46 m/s
293.2 K, 94.5 kPa | 115.2 m/s
293.2 K, 94.6 kPa | 115.21 m/s
293.2 K, 105.6 kPa | 114.93 m/s and 114.94 m/s
293.2 K, 120.1 kPa | 114.57 m/s
293.2 K, 139.6 kPa | 114.1 m/s
293.2 K, 169.6 kPa | 113.36 m/s
293.2 K, 198.9 kPa | 112.61 m/s
293.2 K, 231.3 kPa | 111.79 m/s
293.2 K, 231.4 kPa | 111.79 m/s
293.2 K, 258.8 kPa | 111.04 m/s
293.2 K, 258.9 kPa | 111.05 m/s
293.2 K, 266.6 kPa | 110.85 m/s
293.2 K, 266.7 kPa | 110.86 m/s
293.2 K, 290.7 kPa | 110.18 m/s
293.2 K, 290.8 kPa | 110.19 m/s
298.4 K, 74.5 kPa | 116.78 m/s
298.4 K, 85.8 kPa | 116.53 m/s
298.4 K, 96.3 kPa | 116.29 m/s
298.4 K, 107.6 kPa | 116.05 m/s
298.4 K, 122.4 kPa | 115.7 m/s
298.4 K, 142.2 kPa | 115.21 m/s
298.4 K, 172.8 kPa | 114.5 m/s
298.4 K, 202.9 kPa | 113.8 m/s
298.4 K, 235.9 kPa | 112.97 m/s
298.4 K, 264.2 kPa | 112.28 m/s
298.4 K, 272.1 kPa | 112.08 m/s
298.4 K, 296.8 kPa | 111.46 m/s
303.7 K, 75.8 kPa | 117.86 m/s
303.7 K, 87.4 kPa | 117.61 m/s
303.7 K, 98.1 kPa | 117.39 m/s
303.7 K, 109.5 kPa | 117.14 m/s
303.7 K, 124.7 kPa | 116.78 m/s
303.7 K, 144.9 kPa | 116.33 m/s
303.7 K, 176.2 kPa | 115.66 m/s
303.7 K, 206.7 kPa | 114.96 m/s
303.7 K, 240.6 kPa | 114.17 m/s
303.7 K, 269.4 kPa | 113.49 m/s
303.7 K, 277.6 kPa | 113.32 m/s
308.9 K, 77.1 kPa | 118.9 m/s
308.9 K, 88.9 kPa | 118.66 m/s
308.9 K, 99.8 kPa | 118.44 m/s
308.9 K, 111.5 kPa | 118.19 m/s
308.9 K, 127 kPa | 117.87 m/s
308.9 K, 147.5 kPa | 117.44 m/s
308.9 K, 179.4 kPa | 116.75 m/s
308.9 K, 210.6 kPa | 116.08 m/s
308.9 K, 245.2 kPa | 115.33 m/s
308.9 K, 274.7 kPa | 114.68 m/s
308.9 K, 283 kPa | 114.5 m/s
314.1 K, 78.5 kPa | 119.93 m/s
314.1 K, 90.4 kPa | 119.69 m/s
314.1 K, 101.6 kPa | 119.47 m/s
314.1 K, 113.4 kPa | 119.24 m/s
314.1 K, 129.2 kPa | 118.93 m/s
314.1 K, 150.2 kPa | 118.52 m/s
314.1 K, 182.7 kPa | 117.85 m/s
314.1 K, 214.5 kPa | 117.21 m/s
314.1 K, 249.8 kPa | 116.47 m/s
314.1 K, 279.9 kPa | 115.84 m/s
314.1 K, 288.4 kPa | 115.67 m/s
319.4 K, 79.8 kPa | 120.96 m/s
319.4 K, 92 kPa | 120.74 m/s
319.4 K, 103.3 kPa | 120.52 m/s
319.4 K, 115.4 kPa | 120.29 m/s
319.4 K, 131.4 kPa | 119.98 m/s
319.4 K, 152.8 kPa | 119.58 m/s
319.4 K, 185.9 kPa | 118.95 m/s
319.4 K, 218.4 kPa | 118.33 m/s
319.4 K, 254.4 kPa | 117.62 m/s
319.4 K, 285.1 kPa | 117.02 m/s
319.4 K, 293.8 kPa | 116.85 m/s
324.6 K, 81.2 kPa | 121.98 m/s
324.6 K, 93.5 kPa | 121.75 m/s
324.6 K, 105.1 kPa | 121.56 m/s
324.6 K, 117.4 kPa | 121.32 m/s
324.6 K, 133.7 kPa | 121.03 m/s
324.6 K, 155.4 kPa | 120.64 m/s
324.6 K, 189.2 kPa | 120.02 m/s
324.6 K, 222.3 kPa | 119.43 m/s
324.6 K, 259 kPa | 118.74 m/s
324.6 K, 290.3 kPa | 118.16 m/s
324.6 K, 299.2 kPa | 117.99 m/s

From the NIST ThermoML archive (doi:10.1021/acs.jced.6b00536)
